Converted amounts (≈) assume the structure as drawn. “Also recorded” adds a separate entry of the source.
Key:
[1] = tested on: N. gonorrhoeae FA1090E-1 (GyrA^A92T/ParC^WT); experiment: MIC by agar dilution, GyrA^A92T strain; type: cell-based; settings: Neisseria gonorrhoeae
Procedure: The purified isolate was confirmed to harbor GyrA^A92T as the single target mutation by DNA sequencing. This strain was designated FA1090E-1 (GyrA^A92T).
(§1) Minimum inhibitory concentration (MIC) of test compounds was determined by an agar dilution method, the reference testing method for N. gonorrhoeae according to the standards of the Clinical and Laboratory Standards Institute and the CDC.

[2] = tested on: N. gonorrhoeae FA1090E-4 (GyrA^D90N/ParC^WT); experiment: MIC by agar dilution, GyrA^D90N strain; type: cell-based; settings: Neisseria gonorrhoeae
Procedure: This strain was designated FA1090E-4 (GyrA^D90N).
as §1

[3] = tested on: N. gonorrhoeae FA1090-Q1 (GyrA^S91F/D95G, ParC WT); experiment: MIC by agar dilution, fluoroquinolone-resistant GyrA^S91F/D95G strain; type: cell-based; settings: Neisseria gonorrhoeae
Procedure: as §1

[4] = biological target: T1, N. gonorrhoeae gyrase GyrA^S91F (Neisseria gonorrhoeae, UniProt P48371, S91F); experiment: Gyrase-catalyzed DNA supercoiling assay, GyrA^S91F; type: biochemical
T1 construct: His; made in house
Procedure: All proteins were His-tagged. N. gonorrhoeae WT gyrase (GyrA, GyrB) and topoisomerase IV (ParC, ParE) subunits as well as mutant GyrA^D90N, GyrA^A92T, GyrA^S91F, and GyrA^S91F/D95G gyrase and ParC^D86N and ParC^S88P topoisomerase IV were prepared as described previously. , N. gonorrhoeae mutant GyrA^D95G gyrase and mutant ParC^S87N and ParC^E91G topoisomerase IV were generated using a QuickChange II XL site-directed mutagenesis kit (Agilent Technologies) with custom primers for the desired mutations. […] The identities of all constructs were confirmed by DNA sequencing, and all enzymes were stored at −80 °C. In all assays, N. gonorrhoeae gyrase or topoisomerase IV was used as a 1:1 GyrA:GyrB or ParC:ParE mixture, respectively, and the stated enzyme concentration reflects that of the holoenzyme (A2B2).
Samples were mixed with 2 μL of loading dye [60% sucrose, 10 mM Tris–HCl (pH 7.9), 0.5% bromophenol blue, and 0.5% xylene cyanol FF] and incubated at 45 °C for 2 min before being subjected to electrophoresis on 1% agarose gels in 100 mM Tris-borate (pH 8.3) and 2 mM EDTA. […] DNA bands were visualized with medium-range ultraviolet light and quantified using an Alpha Innotech digital imaging system (Protein Simple). DNA supercoiling was monitored by the conversion of relaxed to supercoiled plasmid.

[5] = tested on: WT N. gonorrhoeae topoisomerase IV; experiment: Topoisomerase IV-catalyzed DNA decatenation assay, WT; type: biochemical, Neisseria gonorrhoeae; settings: decatenation IC50 vs supercoiling IC50, WT enzymes
Procedure: (§2) All proteins were His-tagged. N. gonorrhoeae WT gyrase (GyrA, GyrB) and topoisomerase IV (ParC, ParE) subunits as well as mutant GyrA^D90N, GyrA^A92T, GyrA^S91F, and GyrA^S91F/D95G gyrase and ParC^D86N and ParC^S88P topoisomerase IV were prepared as described previously. , N. gonorrhoeae mutant GyrA^D95G gyrase and mutant ParC^S87N and ParC^E91G topoisomerase IV were generated using a QuickChange II XL site-directed mutagenesis kit (Agilent Technologies) with custom primers for the desired mutations. Mutant N. gonorrhoeae GyrA and ParC subunits were expressed and purified as described by Ashley et al. with the following modifications to optimize protein expression and lysis: (1) GyrA^D95G was expressed for 2.5 h and ParC^S87N and ParC^E91G were expressed for 3 h before harvesting, and (2) cells were lysed by sonication using a digital sonifier (Branson). The identities of all constructs were confirmed by DNA sequencing, and all enzymes were stored at −80 °C. In all assays, N. gonorrhoeae gyrase or topoisomerase IV was used as a 1:1 GyrA:GyrB or ParC:ParE mixture, respectively, and the stated enzyme concentration reflects that of the holoenzyme (A2B2). […]

[6] = biological target: T2, N. gonorrhoeae topoisomerase IV ParC^D86N (Neisseria gonorrhoeae, UniProt P48374, D86N); experiment: Topoisomerase IV-catalyzed DNA decatenation assay, ParC^D86N; type: biochemical
T2 construct: His; made in house
T2 sequence (P48374 1-768 D86N): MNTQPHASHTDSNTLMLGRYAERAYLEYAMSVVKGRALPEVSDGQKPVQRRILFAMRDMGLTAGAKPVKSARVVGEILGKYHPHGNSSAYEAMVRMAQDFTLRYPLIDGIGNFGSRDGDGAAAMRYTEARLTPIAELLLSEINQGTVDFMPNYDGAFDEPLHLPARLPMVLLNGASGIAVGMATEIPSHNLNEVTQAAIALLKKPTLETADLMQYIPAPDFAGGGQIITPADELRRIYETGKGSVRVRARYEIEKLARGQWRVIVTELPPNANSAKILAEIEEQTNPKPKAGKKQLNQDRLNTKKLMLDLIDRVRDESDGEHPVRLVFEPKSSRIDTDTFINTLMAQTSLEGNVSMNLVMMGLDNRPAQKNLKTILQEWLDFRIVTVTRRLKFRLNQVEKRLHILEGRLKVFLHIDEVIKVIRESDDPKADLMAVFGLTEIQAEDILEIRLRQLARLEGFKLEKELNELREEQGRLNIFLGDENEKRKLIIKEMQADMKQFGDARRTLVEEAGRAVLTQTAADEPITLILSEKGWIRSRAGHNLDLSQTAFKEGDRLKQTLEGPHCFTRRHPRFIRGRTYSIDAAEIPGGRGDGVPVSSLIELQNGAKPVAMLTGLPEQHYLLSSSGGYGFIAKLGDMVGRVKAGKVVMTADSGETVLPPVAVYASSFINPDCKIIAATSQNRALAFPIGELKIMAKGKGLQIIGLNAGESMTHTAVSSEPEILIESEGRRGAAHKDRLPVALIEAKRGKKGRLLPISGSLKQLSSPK
Procedure: as §2

[7] = tested on: N. gonorrhoeae topoisomerase IV ParC^S87N; experiment: Topoisomerase IV-catalyzed DNA decatenation assay, ParC^S87N; type: biochemical, Neisseria gonorrhoeae; settings: ParC S87N vs WT
Procedure: as §2

[8] = tested on: uncomplicated urogenital gonorrhea; design: method as in recent phase III clinical trial; settings: vs intramuscular ceftriaxone plus oral azithromycin, ref recent phase III clinical trial; cited from earlier work

T1 sequence (P48371 whole entry S91F): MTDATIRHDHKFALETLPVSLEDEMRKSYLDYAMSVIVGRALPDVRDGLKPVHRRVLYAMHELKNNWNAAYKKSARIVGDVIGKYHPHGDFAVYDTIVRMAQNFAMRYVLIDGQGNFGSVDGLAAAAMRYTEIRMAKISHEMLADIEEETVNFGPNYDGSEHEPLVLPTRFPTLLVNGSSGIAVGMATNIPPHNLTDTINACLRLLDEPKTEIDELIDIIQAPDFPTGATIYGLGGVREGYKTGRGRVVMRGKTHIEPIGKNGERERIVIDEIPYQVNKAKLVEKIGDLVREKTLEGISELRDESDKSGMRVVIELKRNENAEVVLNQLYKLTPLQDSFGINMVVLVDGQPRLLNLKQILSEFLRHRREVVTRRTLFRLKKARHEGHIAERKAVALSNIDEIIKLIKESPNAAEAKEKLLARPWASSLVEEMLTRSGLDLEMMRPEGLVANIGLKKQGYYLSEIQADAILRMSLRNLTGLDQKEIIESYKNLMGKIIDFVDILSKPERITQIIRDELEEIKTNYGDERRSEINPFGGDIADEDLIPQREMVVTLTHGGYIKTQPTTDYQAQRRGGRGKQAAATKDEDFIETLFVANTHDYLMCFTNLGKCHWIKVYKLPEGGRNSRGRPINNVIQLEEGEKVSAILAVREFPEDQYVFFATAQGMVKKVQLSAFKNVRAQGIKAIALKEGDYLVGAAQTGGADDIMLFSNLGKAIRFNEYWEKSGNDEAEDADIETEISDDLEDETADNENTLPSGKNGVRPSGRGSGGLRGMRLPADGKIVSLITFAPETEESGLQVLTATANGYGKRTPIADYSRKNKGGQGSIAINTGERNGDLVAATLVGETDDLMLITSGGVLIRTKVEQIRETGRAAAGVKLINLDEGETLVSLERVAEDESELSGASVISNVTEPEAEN
T1 sequence (P22118 whole entry partner): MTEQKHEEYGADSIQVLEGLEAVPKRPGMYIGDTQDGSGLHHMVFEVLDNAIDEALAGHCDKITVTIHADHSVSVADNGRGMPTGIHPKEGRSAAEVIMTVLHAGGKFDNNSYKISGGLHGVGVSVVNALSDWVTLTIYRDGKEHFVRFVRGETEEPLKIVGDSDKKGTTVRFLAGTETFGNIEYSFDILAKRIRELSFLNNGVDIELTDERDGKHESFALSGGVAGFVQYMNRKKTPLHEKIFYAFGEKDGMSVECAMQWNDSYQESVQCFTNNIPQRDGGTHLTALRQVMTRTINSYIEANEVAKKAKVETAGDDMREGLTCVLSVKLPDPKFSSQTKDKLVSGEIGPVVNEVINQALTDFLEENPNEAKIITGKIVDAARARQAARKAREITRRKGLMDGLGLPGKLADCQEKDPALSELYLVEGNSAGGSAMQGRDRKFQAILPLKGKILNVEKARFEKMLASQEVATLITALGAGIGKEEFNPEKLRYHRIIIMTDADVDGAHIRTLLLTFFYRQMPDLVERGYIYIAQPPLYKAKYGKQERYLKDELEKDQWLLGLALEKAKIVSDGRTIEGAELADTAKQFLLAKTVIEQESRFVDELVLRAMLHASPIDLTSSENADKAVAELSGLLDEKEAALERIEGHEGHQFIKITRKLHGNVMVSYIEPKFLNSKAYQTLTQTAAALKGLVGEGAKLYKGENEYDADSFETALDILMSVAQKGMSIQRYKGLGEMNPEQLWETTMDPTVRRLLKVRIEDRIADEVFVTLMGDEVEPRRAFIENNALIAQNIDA

## O=c1ccc2ncc(=O)n3c2n1C[C@H]3CN1CCC(NCc2cc3c(cn2)OCCC3)CC1 [gepotidacin]
[1]
  MIC: 2 µg/mL (≈ 4.46 µM)
[2]
  MIC: 1 µg/mL (≈ 2.23 µM)
[3]
  MIC: 0.125 µg/mL (≈ 0.279 µM)
[4]; GyrA S91F gyrase, read-out: IC50, inhibition of DNA supercoiling
  IC50: 7.5 µM
[4]; GyrA S91F vs WT
  fold increase of supercoiling IC50 vs WT gyrase: ~1.5 fold
[5]
  fold greater potency (IC50) against topoisomerase IV over gyrase: ~2.8 fold
[6]; ParC D86N topoisomerase IV, read-out: IC50, inhibition of DNA decatenation
  IC50: > 200 µM
[6]; ParC D86N, gepotidacin concentrations as high as 200 μM
  inhibition of DNA decatenation: no inhibition
[7]
  fold lower decatenation IC50 vs WT topoisomerase IV: ~2.3 fold
[8]
  outcome of phase III clinical trial: met its primary efficacy end point; also recorded: noninferiority
